This is an account of results in EP0271023A2, “Use of dihydrophenylamino-acid derivatives and medicines containing them for immunomodulation and cytostasis” (GÖDECKE AKTIENGESELLSCHAFT, priority 1986, dated 1988).

The test system of data set [1] is allogene Hauttransplantate. Type of data set: in vivo, Ratte. The conditions noted are these: for Toxizität / Unverträglichkeit der behandelten Tiere: skin graft model, Tab. I, Azathioprin in äquipotenter Dosis; for Wirksamkeit im Hauttransplantat-Modell (immunsuppressive Aktivität): qualitative statement. The source says:
Die mit einer Stanze gewonnenen und vom Panniculus carnosus (einer Fett- und Muskelschicht) präparativ befreiten Transplantate werden in ebenfalls ausgestanzte Transplantatbetten des Empfängertiers plaziert. Die Transplantate werden mit speziellem Verbandmaterial bedeckt und mit einer Bandage fixiert. Endpunkt der Untersuchung ist der Tag, an dem 50 % der Tiere beide Transplantate vollständig abgestoßen haben. Die immunsuppressive Aktivität eines Wirkstoffs wird anhand der Verlängerung des normalen Transplantatüberlebens (Tage) der nicht behandelten Kontrolltiere bestimmt.

The test system of data set [2] is boviner Endothelzellen. The experiment in a line: In vitro migration/motility of endothelial cells under angiogenic stimulus (modified Boyden chamber). Type of data set: cell-based, bovine. The conditions noted are these: for Anzahl der migrierten Zellen Kollagen-Fibronektin-Filter / Anzahl der migrierten Zellen Kollagen-Filter: Präinkubation + (Gangliosid-Mischung), innerhalb 8 Stunden, Mittelwert (± Standardabweichung) von 3 Versuchen. The source says:
Es wurde daher eine Untersuchung mit Cefradin als Modellsubstanz auf eine die Gefäßbildung hemmende Aktivität in einem hierzu geeigneten in vitro Model durchgeführt (s. Tab. II). In diesem Test wird der Einfluß auf die Motilität boviner Endothelzellen unter angiogenem (gefäßbildendem) Stimulus bestimmt.

For data set [3] the following is noted: cited from earlier work.

On to `Cn1cnc([N+](=O)[O-])c1Sc1ncnc2nc[nH]c12` [Azathioprin, 6[(1-Methylnitroimidazol-5-yl)thio]purin], for which the “Toxizität / Unverträglichkeit der behandelten Tiere” value in data set [1] was “ausgeprägt toxisch”.

Turning to `CC1=C(C(=O)O)N2C(=O)[C@@H](NC(=O)[C@H](N)c3ccc(O)cc3)[C@H]2SC1` [Cefadroxil], in data set [1], the “Wirksamkeit im Hauttransplantat-Modell (immunsuppressive Aktivität)” value is “Unwirksamkeit”.

As to `CC1=C(C(=O)O)N2C(=O)C(NC(=O)C(N)C3=CCC=CC3)C2SC1` (stereo not drawn) [Cefradin], in data set [2] (Cefradin 10 µg/ml Medium), the “Anzahl der migrierten Zellen Kollagen-Fibronektin-Filter” value is reported as 306 ± 74 and the “Anzahl der migrierten Zellen Kollagen-Filter” value was determined as 173 ± 29. Further, in data set [2] (Cefradin 100 µg/ml Medium), the “Anzahl der migrierten Zellen Kollagen-Fibronektin-Filter” value was determined as 256 ± 24 and the “Anzahl der migrierten Zellen Kollagen-Filter” value turned out to be 104 ± 3. In data set [2] (Cefradin 1000 µg/ml Medium), the “Anzahl der migrierten Zellen Kollagen-Fibronektin-Filter” value turned out to be 51 ± 6 and the “Anzahl der migrierten Zellen Kollagen-Filter” value came out at 23 ± 8. Moreover, the “Aktivität auf die Motilität boviner Endothelzellen” value in data set [2] (concentration range corresponding to the low, already immunosuppressive in vivo doses) is “nur geringfügige, wenn auch dosisabhängige Aktivität”. Further, the “Inhibition der Endothelmotilität” value in data set [2] (in hoher, bereits zytotoxischer Konzentration) is given as “komplette Inhibition”. Moreover, the “Ausbildung der Gefäßverbindung zwischen Transplantatbett und Transplantat” value in data set [1] (höchste Cefradin Dosis, in controls established by about the 5th postoperative day) is “unterdrückte”. In addition, in data set [1], the “Wirksamkeit im Hauttransplantat-Modell (immunsuppressive Aktivität)” value is “außerordentlich wirksam” and the “Toxizität / Unverträglichkeit der behandelten Tiere” value was “keinerlei Unverträglichkeit”. Further, in data set [3] (im Tierversuch, länger dauernde hochdosierte Anwendung), the Nierentoxizität result is reported as “keine Nierentoxizität”. Also, the “leukopenische Wirkung” value in data set [3] (in vivo) is “nicht leukopenisch”.
